The assay concerns the target T1, TMEM16A (Homo sapiens, UniProt Q5XXA6).
T1 sequence (Q5XXA6 1-986): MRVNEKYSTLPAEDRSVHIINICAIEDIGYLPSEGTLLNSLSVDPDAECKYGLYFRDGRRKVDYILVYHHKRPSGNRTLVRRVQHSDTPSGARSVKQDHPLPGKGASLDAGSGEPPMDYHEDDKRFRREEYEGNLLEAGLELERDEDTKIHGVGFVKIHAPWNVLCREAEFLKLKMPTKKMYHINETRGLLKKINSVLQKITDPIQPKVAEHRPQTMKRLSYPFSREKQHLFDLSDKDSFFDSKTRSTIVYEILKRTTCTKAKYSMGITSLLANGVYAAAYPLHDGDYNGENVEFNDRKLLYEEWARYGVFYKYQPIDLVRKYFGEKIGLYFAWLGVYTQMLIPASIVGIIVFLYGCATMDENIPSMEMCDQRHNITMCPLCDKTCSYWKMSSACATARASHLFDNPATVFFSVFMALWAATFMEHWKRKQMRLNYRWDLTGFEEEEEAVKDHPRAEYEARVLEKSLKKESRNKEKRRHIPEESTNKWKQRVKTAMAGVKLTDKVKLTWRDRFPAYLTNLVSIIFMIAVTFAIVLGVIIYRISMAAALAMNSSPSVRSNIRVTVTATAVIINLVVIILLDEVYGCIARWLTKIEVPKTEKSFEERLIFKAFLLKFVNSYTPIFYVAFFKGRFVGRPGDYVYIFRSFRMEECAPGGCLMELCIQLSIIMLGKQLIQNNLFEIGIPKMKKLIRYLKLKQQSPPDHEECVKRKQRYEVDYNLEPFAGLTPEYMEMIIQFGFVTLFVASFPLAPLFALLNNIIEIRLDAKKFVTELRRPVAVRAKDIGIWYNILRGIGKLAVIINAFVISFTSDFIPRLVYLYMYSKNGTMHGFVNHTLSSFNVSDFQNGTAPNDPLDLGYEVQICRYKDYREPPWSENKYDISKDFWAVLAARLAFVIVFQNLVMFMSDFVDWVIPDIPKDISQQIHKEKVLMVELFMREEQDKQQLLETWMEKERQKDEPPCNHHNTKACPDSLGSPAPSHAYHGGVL
Nature of the assay: Selectivity: TMEM16A (ATP-stimulated) YFP assay. Conditions: 10 µM. In kind it is cell-based. An excerpt:
To investigate Compound A1 selectivity, transport assays were done on a panel of SLC26-family homologs, and other relevant epithelial ion transporters and channels. […] In separate studies, to investigate possible action of Compound A1 on multiple ion transporters and channels in a human epithelium, human bronchial epithelial (HBE) cells were studied by short-circuit current, with successive additions of amiloride (to block the epithelial sodium channel ENaC), forskolin, CFTRinh-172 (to block CFTR), and ATP (to activate the Ca^2+-activated chloride channel, CaCC) (FIG. 5C).
YFP-based assays of CFTR, pendrin and TMEM16A were as described. HEK cells transfected to express YFP and SLC26A3, slc26a6 or slc26a9 were functionally assayed using a Cl^-/I^- exchange protocol. Assays of Cl^-/HCO3^- exchange were done using BCECF as an intracellular pH indicator as described for pendrin. […]
HEK293 cells transfected with pIRES-YFP-slc26a9 were plated in 96-well black-walled, clear-bottom tissue culture plates (Corning Life Sciences, Tewksbury, MA) after coating with FNC Coating Mix (AthenaES, Baltimore, MD). […] Assays of slc26a9-mediated anion exchange were done by initially recording YFP fluorescence prior to addition of 100 µL of NaI-substituted PBS to test wells, with the initial rate of Cl^-/I^- exchange deduced from fluorescence intensity by single exponential regression. […]

Each structure is given as a SMILES string. Entries after “also recorded” stand apart in the source; their conditions may differ.

Regarding `Cc1c(CC(=O)O)c(=O)oc2c(C)c(OCc3cccc(Br)c3)ccc12` [Compound A1], the “effect on activity of TMEM16A” value is listed as “did not alter the activity; also recorded: differences not significant”.

For the origin of these results see patent US20230339878A1, “SLC26A3 INHIBITORS AND USE THEREOF” (THE REGENTS OF THE UNIVERSITY OF CALIFORNIA, priority 2018, published 2023).
